Molecules are shown by their SMILES.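 Grown in 96-well plates, cells were treated for 48 hours with each compound at five concentrations. Insufficient inhibition: endpoint recorded as highest concentration tested. GI50 is the concentration that inhibits growth by half.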 Activity calls are given as the source filed them. No stated cut-off is given here; in the data, active = GI50 up to about 1.1 µM and inactive = higher. Bounds are passed on as bounds.

Common to all, as to test: NCI anticancer screen, dose series, 48 h
Assay [1] concerns DU-145.
Assay [2] has as its system NCI/ADR-RES.
For assay [3], the system named is XF498.
Assay [4] concerns M19-MEL.
Assay [5] relates to HOP-18.
Assay [6] relates to DMS-114.
The subject of assay [7] is RXF 631.
Assay [8] deals with LXFL 529.

Consider `CCCC[C@H]1[C@@H](OCOc2ccccc2)COC(=O)N1[C@H](C)c1ccccc1`, for which the values for the GI50 in assay [1] and in assay [2] were 21.5 µM (inactive) and > 34.3 µM (inactive), respectively.

Regarding `COc1cccc(N2C(=O)C3c4[nH]c5ccc(C)cc5c4C4CCC(C(C)(C)C)CC4C3C2=O)c1` (stereo unspecified), the GI50 is > 10 µM (inactive) in assay [1] and 3.51 µM (inactive) in assay [2].

As for `COC1C(O)CC(OC2CC(Oc3cc4cc5c(c(O)c4c(O)c3C)C(=O)[C@@H](OC3CC(OC4CC(OC6CC(C)(O)C(OC(C)=O)C(C)O6)C(O)C(C)O4)C(O)C(C)O3)[C@H]([C@H](OC)C(=O)[C@@H](O)[C@@H](C)O)C5)OC(C)C2OC(C)=O)OC1C` (stereo partly specified) [CHROMOMYCIN], the GI50 in assay [3] is 0.00315 µM (active); in assay [4], 0.00337 µM (active); in assay [1] it was 2.48e-05 µM (active); in assay [5], 0.00445 µM (active); in assay [2], 0.75 µM (active); in assay [6], 2.14e-05 µM (active).

As to `CC1=CC2c3cccc4[nH]cc(c34)CC2N(C)C1` (stereo unspecified), the GI50 in assay [3] was 9.75 µM (inactive); in assay [4] it was > 100 µM (inactive); in assay [5], 23.4 µM (inactive); in assay [2] it was > 100 µM (inactive); in assay [6] it was 51.2 µM (inactive).

As for `Cc1ccccc1OCC(COC(=O)Nc1ccccc1)OC(=O)Nc1ccccc1` (stereo unspecified), the GI50 was 31.1 µM (inactive) in assay [4]; 34.4 µM (inactive) in assay [5]; 9.93 µM (inactive) in assay [7]; 45.9 µM (inactive) in assay [8]; 42.6 µM (inactive) in assay [6].

For `Nc1ncc2c(n1)-c1ccccc1OC2`, the GI50 in assay [3], in assay [4], in assay [5], in assay [2] and in assay [6] was > 100 µM (inactive) throughout.

Take `CN(C)CCNC(=O)c1cccc2c1C(=O)c1ccccc1C2=O`: the GI50 in assay [3] was > 100 µM (inactive); in assay [4], 20 µM (inactive); in assay [5] it was > 100 µM (inactive); in assay [2] it was 27.4 µM (inactive); in assay [6] it was 15.7 µM (inactive).

Take `CC1=C[C@]2(CC(C)C3C(CC4(C)C5CCC6C(C)(C)C(=O)CC[C@@]67C[C@@]57CC[C@]34C)O2)OC1=O` (stereo partly specified): the GI50 is 13.9 µM (inactive) in assay [3]; 6.43 µM (inactive) in assay [5]; 3.54 µM (inactive) in assay [7]; 7.52 µM (inactive) in assay [8]; 3.81 µM (inactive) in assay [6].

For the compound `CC(/C=N/N=C(N)N)=N\N=C(N)N`, the GI50 in assay [3] was 2.96 µM (inactive); in assay [1], 46.6 µM (inactive); in assay [5] it was 246 µM (inactive); in assay [2], 4.15 µM (inactive); in assay [8], 61.9 µM (inactive); in assay [6], 16.8 µM (inactive).

For `COc1cc(C(C)O)c(S(=O)(=O)CC(C)O)nn1` (stereo unspecified), the GI50 in assay [1] and in assay [2] was > 100 µM (inactive) each time.

In the case of `CCOC(=O)C(O)(NC(=O)c1ccc(F)cc1)C(F)(F)F` (stereo unspecified), the GI50 in assay [1] and in assay [2] was > 100 µM (inactive) throughout.

Regarding `Cc1c2c(cc3c1[nH]c1ccccc13)C(c1ccc(F)cc1)=NCC2`, the GI50 in assay [3] was 1.67 µM (inactive); in assay [4], 1.21 µM (inactive); in assay [5], 2.88 µM (inactive); in assay [2], 0.774 µM (active); in assay [6] it was 0.746 µM (active).

`COc1cc([C@@H]2c3cc4c(c(O[C@@H]5O[C@H]6CO[C@@H](C)O[C@H]6[C@H](O)[C@@H]5O)c3C[C@H]3COC(=O)[C@@H]32)OCO4)cc(OC)c1O`: the GI50 was 12.6 µM (inactive) in assay [3]; 20.5 µM (inactive) in assay [4]; 11.7 µM (inactive) in assay [5]; 4.02 µM (inactive) in assay [2]; 3.79 µM (inactive) in assay [6].

Regarding `Cc1[nH]c(=O)[nH]c(=O)c1C(=O)N(CCO)Cc1ccccc1`, the GI50 in assay [1] is > 100 µM (inactive).

Take `CCOC(C)OC1CC(n2cc(C)c(=O)[nH]c2=O)OC1CO` (stereo unspecified): the GI50 in assay [3], in assay [4], in assay [5], in assay [8] and in assay [6] was > 100 µM (inactive) throughout.

The record behind these values is ChEMBL document CHEMBL1201862, “PubChem BioAssay data set” (2004).
